Experimental findings from PubChem BioAssay AID256 (DTP/NCI, 2004) are described below.

Structures are written as SMILES. Where “and” joins values, the source holds several entries; their conditions need not be identical. Identical values can stand only once. Toxic doses and inconclusive results are not listed.

The test system of this experiment is CD2F1 mice, L1210 leukemia ip, survival T/C. Description: NCI In Vivo Anticancer Drug Screen. Data for tumor model L1210 Leukemia (intraperitoneal) in CD2F1 (CDF1) mice. Particulars: higher = longer survival. The gist of the method:
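Transplantable tumor in mice; compound-treated vs vehicle-treated groups. Read-out = treated/control ratio of the measured endpoint.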

Setting [1] is: endpoint: mean survival time, dose: 100.0 mg/kg/injection, schedule: Q04DX003 (ip), vehicle: Klucel (hydroxypropylcellulose) (HPC).
Where [2] appears, read: endpoint: mean survival time, dose: 200.0 mg/kg/injection, schedule: Q04DX003 (ip), vehicle: Klucel (hydroxypropylcellulose) (HPC).
The mark [3] stands for this setting: endpoint: mean survival time, dose: 400.0 mg/kg/injection, schedule: Q04DX003 (ip), vehicle: Klucel (hydroxypropylcellulose) (HPC).
[4] abbreviates: endpoint: mean survival time, dose: 100.0 mg/kg/injection, schedule: Q01DX001 (ip), vehicle: saline with Tween-80.
Setting [5] is: endpoint: mean survival time, dose: 200.0 mg/kg/injection, schedule: Q01DX001 (ip), vehicle: saline with Tween-80.
Where [6] appears, read: endpoint: mean survival time, dose: 100.0 mg/kg/injection, schedule: Q04DX002 (ip), vehicle: saline with Tween-80.
Setting [7] is: endpoint: mean survival time, dose: 200.0 mg/kg/injection, schedule: Q04DX002 (ip), vehicle: saline with Tween-80.
[8] abbreviates: endpoint: mean survival time, dose: 400.0 mg/kg/injection, schedule: Q04DX002 (ip), vehicle: saline with Tween-80.

Turning to `COc1cc(C[C@@H]2COC(=O)[C@]2(O)Cc2ccc(O)c(OC)c2)ccc1O`, the T/C was 106 % of control (endpoint: mean survival time, dose: 1.0 mg/kg/injection, schedule: Q01DX009 (ip), vehicle: saline + alcohol); 104 % of control (endpoint: mean survival time, dose: 2.0 mg/kg/injection, schedule: Q01DX009 (ip), vehicle: saline + alcohol); 106 % of control (endpoint: mean survival time, dose: 4.0 mg/kg/injection, schedule: Q01DX009 (ip), vehicle: saline + alcohol); 103 % of control (endpoint: mean survival time, dose: 8.0 mg/kg/injection, schedule: Q01DX009 (ip), vehicle: saline + alcohol); 101 % of control (endpoint: mean survival time, dose: 16.0 mg/kg/injection, schedule: Q01DX009 (ip), vehicle: saline + alcohol).
For `Nc1ccn(CCC(COCc2ccccc2)COCc2ccccc2)c(=O)n1`, the T/C under setting [1] was 100 % of control, the T/C under setting [2] was 96 % of control and the T/C under setting [3] is 96 % of control.
As for `C=C1C(=O)OC2CCCCC3OC3C12` (stereo unspecified), the T/C runs as follows: (endpoint: mean survival time, dose: 25.0 mg/kg/injection, schedule: Q01DX001 (ip), vehicle: saline) 108 % of control; (endpoint: mean survival time, dose: 50.0 mg/kg/injection, schedule: Q01DX001 (ip), vehicle: saline) 96 % of control; (endpoint: mean survival time, dose: 100.0 mg/kg/injection, schedule: Q01DX001 (ip), vehicle: saline) 91 % of control.
For `COc1cc2c(cc1OC)C(CCNC(=O)CCCO)NCC2` (stereo unspecified), the T/C was 97 % of control (endpoint: mean survival time, dose: 100.0 mg/kg/injection, schedule: Q01DX001 (ip), vehicle: saline sonified); 98 % of control (endpoint: mean survival time, dose: 100.0 mg/kg/injection, schedule: Q01DX009 (ip), vehicle: saline sonified); 100 % of control (endpoint: mean survival time, dose: 200.0 mg/kg/injection, schedule: Q01DX001 (ip), vehicle: saline sonified); 95 % of control (endpoint: mean survival time, dose: 200.0 mg/kg/injection, schedule: Q01DX009 (ip), vehicle: saline sonified); 100 % of control (endpoint: mean survival time, dose: 400.0 mg/kg/injection, schedule: Q01DX001 (ip), vehicle: saline sonified); 91 % of control (endpoint: mean survival time, dose: 400.0 mg/kg/injection, schedule: Q01DX009 (ip), vehicle: saline sonified).
Turning to `c1ccc2nc(CCc3ccc4ccccc4n3)ccc2c1`, the T/C reads like this: (endpoint: mean survival time, dose: 50.0 mg/kg/injection, schedule: Q01DX009 (ip), vehicle: saline) 96 % of control; (endpoint: mean survival time, dose: 100.0 mg/kg/injection, schedule: Q01DX009 (ip), vehicle: saline) 100 % of control; (endpoint: mean survival time, dose: 200.0 mg/kg/injection, schedule: Q01DX009 (ip), vehicle: saline) 102 % of control.
Turning to `CCCCCCCCCCCCCC(=O)[O][Sn]([CH2]CCC)([CH2]CCC)[O]C(=O)CCCCCCCCCCCCC`, the T/C was 97 % of control (endpoint: mean survival time, dose: 0.78 mg/kg/injection, schedule: Q01DX009 (ip), vehicle: other); 100 % of control (endpoint: mean survival time, dose: 1.56 mg/kg/injection, schedule: Q01DX009 (ip), vehicle: other); 112 % of control (endpoint: mean survival time, dose: 3.13 mg/kg/injection, schedule: Q01DX009 (ip), vehicle: other).
Regarding `CCC1(C)C(=O)CCC2C1CCC1(C)C(C(C)CCCC(C)C)CCC21` (stereo unspecified), the T/C runs as follows: (endpoint: mean survival time, dose: 100.0 mg/kg/injection, schedule: Q01DX001 (sc), vehicle: steriod suspending solution) 101 % of control; (endpoint: mean survival time, dose: 200.0 mg/kg/injection, schedule: Q01DX001 (sc), vehicle: steriod suspending solution) 98 % of control; (endpoint: mean survival time, dose: 400.0 mg/kg/injection, schedule: Q01DX001 (sc), vehicle: steriod suspending solution) 118 % of control.
Turning to `O=C(O)c1ccc(O)cc1C(=O)O.[NH-]C1CCCCC1[NH-].[Pt+2]`, the T/C by setting is: (endpoint: mean survival time, dose: 1.17 mg/kg/injection, schedule: Q04DX003 (ip), vehicle: other) 168 % of control; (endpoint: mean survival time, dose: 9.38 mg/kg/injection, schedule: Q04DX003 (ip), vehicle: other) 194 % of control; (endpoint: mean survival time, dose: 18.75 mg/kg/injection, schedule: Q04DX003 (ip), vehicle: other) 189 % of control.
`CCCCCCCCCCCCCCCCCCCOc1ccc(OCCCCCCCCCC)cc1`: the T/C was 95 % of control under setting [4]; 86 % of control under setting [5]; 86 % of control (endpoint: mean survival time, dose: 400.0 mg/kg/injection, schedule: Q01DX001 (ip), vehicle: saline with Tween-80).
As to `CCOC(=O)c1cc(=O)c2ccccc2[nH]1`, the T/C runs as follows: (endpoint: mean survival time, dose: 50.0 mg/kg/injection, schedule: Q01DX001 (ip), vehicle: saline with Tween-80) 93 % of control; under setting [4], 98 % of control; under setting [5], 90 % of control.
For `CCN(CC)C(=S)N1C(=O)C2C3CCC(O3)C2C1=O` (stereo unspecified), the T/C (endpoint: mean survival time, dose: 25.0 mg/kg/injection, schedule: Q04DX002 (ip), vehicle: saline with Tween-80) was 93 % of control.
For `Cc1ccc(/C(C#N)=C/c2ccc3c(c2)OCO3)cc1`, the T/C under setting [6] was 94 % of control, the T/C under setting [7] is 97 % of control and the T/C under setting [8] was 91 % of control.
In the case of `CCCCCOC(=O)COc1ccc(F)cc1F`, the T/C under setting [6] was 101 % of control, the T/C under setting [7] is 105 % of control and the T/C under setting [8] was 90 % of control.
Take `COc1cccc2c1C(=O)c1c(O)c3c(c(O)c1C2=O)C[C@@](O)(C(=O)CSc1ccccc1)C[C@@H]3OC1CC(N)C(O)C(C)O1` (stereo partly specified): the T/C reads like this: (endpoint: mean survival time, dose: 0.78 mg/kg/injection, schedule: Q01DX009 (ip), vehicle: water) 107 % of control; (endpoint: mean survival time, dose: 1.56 mg/kg/injection, schedule: Q01DX009 (ip), vehicle: water) 106 % of control; (endpoint: mean survival time, dose: 3.13 mg/kg/injection, schedule: Q01DX009 (ip), vehicle: water) 101 % of control; (endpoint: mean survival time, dose: 6.25 mg/kg/injection, schedule: Q01DX009 (ip), vehicle: water) 106 % of control; (endpoint: mean survival time, dose: 12.5 mg/kg/injection, schedule: Q01DX009 (ip), vehicle: water) 101 % of control.
Turning to `CCOC(=O)C[N+](CC)(CC)CC`, the T/C is, setting by setting: under setting [1], 96 % of control; under setting [2], 96 % of control; under setting [3], 93 % of control.
Regarding `CS(=O)(=O)OC1CC(n2ccc(=O)[nH]c2=O)OC1COC(c1ccccc1)(c1ccccc1)c1ccccc1` (stereo unspecified), the T/C (endpoint: median survival time, dose: 12.5 mg/kg/injection, schedule: Q01DX005 (ip), vehicle: saline with Tween-80) was 98 % of control and 103 % of control; the T/C (endpoint: median survival time, dose: 25.0 mg/kg/injection, schedule: Q01DX005 (ip), vehicle: saline with Tween-80) was 100 % of control and 96 % of control; the T/C (endpoint: median survival time, dose: 50.0 mg/kg/injection, schedule: Q01DX005 (ip), vehicle: saline with Tween-80) is 108 % of control and 94 % of control; the T/C (endpoint: median survival time, dose: 100.0 mg/kg/injection, schedule: Q01DX005 (ip), vehicle: saline with Tween-80) was 100 % of control and 94 % of control; the T/C (endpoint: median survival time, dose: 200.0 mg/kg/injection, schedule: Q01DX005 (ip), vehicle: saline with Tween-80) is 98 % of control and 101 % of control.
For `Oc1ccc2ccccc2c1Cc1ccccc1`, the T/C (endpoint: mean survival time, dose: 100.0 mg/kg/injection, schedule: Q04DX003 (ip), vehicle: saline with Tween-80) was 101 % of control; the T/C (endpoint: mean survival time, dose: 200.0 mg/kg/injection, schedule: Q04DX003 (ip), vehicle: saline with Tween-80) was 97 % of control; the T/C (endpoint: mean survival time, dose: 400.0 mg/kg/injection, schedule: Q04DX003 (ip), vehicle: saline with Tween-80) is 98 % of control.
`COC1=CCC2C(=O)C=CC(=O)C2C1` (stereo unspecified): the T/C by setting is: (endpoint: mean survival time, dose: 12.5 mg/kg/injection, schedule: Q01DX005 (ip), vehicle: Klucel (hydroxypropylcellulose) (HPC)) 95 % of control; (endpoint: mean survival time, dose: 25.0 mg/kg/injection, schedule: Q01DX005 (ip), vehicle: Klucel (hydroxypropylcellulose) (HPC)) 95 % of control; (endpoint: mean survival time, dose: 50.0 mg/kg/injection, schedule: Q01DX005 (ip), vehicle: Klucel (hydroxypropylcellulose) (HPC)) 93 % of control; (endpoint: mean survival time, dose: 100.0 mg/kg/injection, schedule: Q01DX005 (ip), vehicle: Klucel (hydroxypropylcellulose) (HPC)) 91 % of control; (endpoint: mean survival time, dose: 200.0 mg/kg/injection, schedule: Q01DX005 (ip), vehicle: Klucel (hydroxypropylcellulose) (HPC)) 90 % of control.
For `CC(=O)NC(Cc1ccc(F)cc1)C(=O)O` (stereo unspecified), the T/C is 95 % of control and 97 % of control (endpoint: mean survival time, dose: 25.0 mg/kg/injection, schedule: Q01DX009 (ip), vehicle: saline with Tween-80); 97 % of control and 98 % of control (endpoint: mean survival time, dose: 50.0 mg/kg/injection, schedule: Q01DX009 (ip), vehicle: saline with Tween-80); 95 % of control and 103 % of control (endpoint: mean survival time, dose: 100.0 mg/kg/injection, schedule: Q01DX009 (ip), vehicle: saline with Tween-80); 95 % of control and 101 % of control (endpoint: mean survival time, dose: 200.0 mg/kg/injection, schedule: Q01DX009 (ip), vehicle: saline with Tween-80); 98 % of control and 101 % of control (endpoint: mean survival time, dose: 400.0 mg/kg/injection, schedule: Q01DX009 (ip), vehicle: saline with Tween-80); 97 % of control and 105 % of control (endpoint: mean survival time, dose: 800.0 mg/kg/injection, schedule: Q01DX009 (ip), vehicle: saline with Tween-80).
Take `CCCCCOC(=S)S`: the T/C by setting is: (endpoint: mean survival time, dose: 9.37 mg/kg/injection, schedule: Q04DX003 (ip), vehicle: Klucel (hydroxypropylcellulose) (HPC)) 86 % of control; (endpoint: mean survival time, dose: 37.5 mg/kg/injection, schedule: Q04DX003 (ip), vehicle: Klucel (hydroxypropylcellulose) (HPC)) 86 % of control.
